Here are results for two molecules from article PMC11726150, “Pre‐ADMET studies of 5‐(3′,4′‐dihydroxyphenyl)‐γ‐valerolactone, the bioactive intestinal metabolite of proanthocyanidins” (Archiv Der Pharmazie, 2024).

Values joined by “and” are separate entries in the source; they are usually repeats but may differ in a detail not shown here. Identical values can stand only once. Counter-ions that a name gives are not always drawn.

One series deals with T1, PXR (Homo sapiens, UniProt O75469).
T1 sequence (O75469 1-434): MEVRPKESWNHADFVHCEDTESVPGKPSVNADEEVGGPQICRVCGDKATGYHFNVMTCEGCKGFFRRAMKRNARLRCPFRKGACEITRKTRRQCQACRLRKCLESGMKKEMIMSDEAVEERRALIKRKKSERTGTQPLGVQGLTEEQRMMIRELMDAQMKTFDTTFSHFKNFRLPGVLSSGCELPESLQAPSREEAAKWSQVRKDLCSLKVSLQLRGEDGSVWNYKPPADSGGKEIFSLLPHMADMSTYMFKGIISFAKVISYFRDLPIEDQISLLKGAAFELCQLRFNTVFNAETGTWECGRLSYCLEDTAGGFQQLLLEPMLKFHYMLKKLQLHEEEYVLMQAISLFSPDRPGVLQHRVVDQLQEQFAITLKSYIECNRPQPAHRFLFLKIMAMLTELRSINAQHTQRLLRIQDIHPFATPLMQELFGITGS
The class given is cell-based. Particulars: HepG2 cells, 10 µM. On the set-up: expressed in transfected cells; host or cells: HepG2 and LS174T cells, transient electroporation. As to the method: The PXR activation potential of VL was determined in transiently transfected HepG2 and LS174T cells as described earlier.^[ [50] ^] In brief, 24‐h‐old cells having 70%−80% confluency were trypsinized and transfected with pSG5‐hPXR (25 μg) and PCR‐5 (25 μg) plasmid DNA by electroporation at 180 V (1 pulse for 70 ms). Cells were incubated at room temperature for 8 min and floating dead cells were carefully removed. Cells were seeded in 96‐well plates at a density of 50,000 cells/well. […] Following 24 h of incubation, the culture medium was aspirated and 40 μL of luciferase reagent (Promega Corporation) was added to each well. Luminescence was measured using a Spectramax M5 plate reader (Molecular Devices) and the fold increase in luciferase activity among sample‐treated cells was calculated in comparison with the vehicle‐treated (DMSO) cells.

The test system of series [1] is P‐gp. Nature of the series: Rhodamine‐123 uptake assay, induction (48 h), differentiated Caco2 cells. The series is classed as cell-based, human. Particulars: 48 h treatment. Here is the method: P‐gp modulation was determined in differentiated Caco2 cells by Rh‐123 uptake assay.^[ [49] ^] In brief, cells in the logarithmic growth phase with 70%–80% confluency were harvested and seeded at a density of 2 × 10^4/well of a 96‐well plate. Cells were allowed to grow for 21 days in a CO2 incubator changing the medium every other day.
After treatment, cells were washed with Hank's buffer and 200 μL of phenol, and serum‐free DMEM/F12 medium containing […] of Rh‐123 was added and cells were incubated for 90 min. The final steps were as described previously.

Another series deals with Wt‐MDCK monolayers. Nature of the series: In vitro transport study across 5‐day Wt‐MDCK monolayers. The class given is in vitro ADME, canine. Particulars: Wt‐MDCK model, VL 50 μM dosed (VLS formed as metabolite), controls 10 μM, N = 4. As to the method:
(§1) Caco2 cells between passage numbers 42–50 and MDCK cells between passage numbers 21–26 were used for transport studies; the assay was conducted as reported by Volpe^[ [33] ^] with slight modifications. Transport experiments were performed in 12‐well Transwell plates. Caco2 cells were seeded at a density of 60,000 cells/cm^2 and grown for 21 days, with change of media every 3 days, while MDCK cells were seeded at a density of 70,000 cells/cm^2 and grown for 5 days, changing the medium daily. The physiological and morphological formation of a confluent monolayer was evaluated by measuring the TEER value: Caco2 monolayers became confluent 1 week after seeding with TEER values greater than 450 Ω/cm^2, while MDCK monolayers became confluent 24 h after seeding with TEER values greater than 90 Ω/cm^2. Phenol red and serum‐free DMEM/F12 medium was used as transport buffer. For bidirectional transport, VL (50 μM) and control compound (propranolol and paclitaxel, 10 μM) were added to the apical side to determine apical to basolateral transport (A–B; absorptive direction) and to the basal side to determine basolateral to apical transport (B–A; secretory direction). The volume of the apical and basolateral chambers was 0.5 and 1.5 mL, respectively. Aliquots of 120 μL were taken from the basolateral (for A–B transport) or the apical (for B–A transport) chamber at 30, 60, 90, and 120 min. An equal volume was replaced with a transport buffer at every time point. At the beginning and at the end of the experiment, an aliquot was also taken from the apical or basolateral chamber for analysis of the drug. To determine the integrity of monolayers, TEER values were measured before and after the experiment. In addition, at the end of the experiment cells were collected and lysed to evaluate the compound intake. Briefly, cells were washed twice with cold PBS and 200 µL of cold MeOH was added to detach and lysate the cells; subsequently, cells were collected into lo‐bind Eppendorf and sonicated in ice for 10 min, then centrifuged for 15 min at 4°C at 14,000 rpm (Eppendorf Centrifuge 5430 R). The supernatant was collected and used for further analysis.
(§2) The apparent permeability P app (cm/s) of compounds was calculated from the following equation (Equation 1), while P app (cm/s) of the metabolites was calculated from the equation (Equation 2): (1) Papp=dQ/dt×1/C×1/A.
(§3) Equation (1) for calculating P app (cm/s) of tested reference compounds. (2) Papp=Metabolic cleareance/A.
(§4) Equation (2) for calculating P app (cm/s) of compound metabolites.
(§5) with Metabolic cleareance=Rate of metabolism/C and where dQ/dt is the rate of transport, C is the initial concentration in the donor compartment, and A is the surface area of the filter. To quantify the rate of transport, cumulative amounts of test compounds were plotted against time (min).
(§6) Efflux ratio was calculated using the following equation (Equation 3)^[ [48] ^]: (3) Efflux ratio=Papp(B−A)/Papp(A−B).

Experiment in series [2]: as above
The series is classed as in vitro ADME, canine. Particulars: dog; Wt‐MDCK model; Papp(B−A)/Papp(A−B); N = 4; read-out: Efflux ratio (mean ± SD). As to the method: as §1, §2, §3, §4, §5, §6

In series [3] the target is T2, P‐gp (Homo sapiens, UniProt P08183).
T2 construct: P‐gp modulation was determined in differentiated Caco2 cells by Rh‐123 uptake assay; endogenous in cells; host or cells: differentiated Caco2 cells (21 days)
T2 sequence (P08183 whole entry): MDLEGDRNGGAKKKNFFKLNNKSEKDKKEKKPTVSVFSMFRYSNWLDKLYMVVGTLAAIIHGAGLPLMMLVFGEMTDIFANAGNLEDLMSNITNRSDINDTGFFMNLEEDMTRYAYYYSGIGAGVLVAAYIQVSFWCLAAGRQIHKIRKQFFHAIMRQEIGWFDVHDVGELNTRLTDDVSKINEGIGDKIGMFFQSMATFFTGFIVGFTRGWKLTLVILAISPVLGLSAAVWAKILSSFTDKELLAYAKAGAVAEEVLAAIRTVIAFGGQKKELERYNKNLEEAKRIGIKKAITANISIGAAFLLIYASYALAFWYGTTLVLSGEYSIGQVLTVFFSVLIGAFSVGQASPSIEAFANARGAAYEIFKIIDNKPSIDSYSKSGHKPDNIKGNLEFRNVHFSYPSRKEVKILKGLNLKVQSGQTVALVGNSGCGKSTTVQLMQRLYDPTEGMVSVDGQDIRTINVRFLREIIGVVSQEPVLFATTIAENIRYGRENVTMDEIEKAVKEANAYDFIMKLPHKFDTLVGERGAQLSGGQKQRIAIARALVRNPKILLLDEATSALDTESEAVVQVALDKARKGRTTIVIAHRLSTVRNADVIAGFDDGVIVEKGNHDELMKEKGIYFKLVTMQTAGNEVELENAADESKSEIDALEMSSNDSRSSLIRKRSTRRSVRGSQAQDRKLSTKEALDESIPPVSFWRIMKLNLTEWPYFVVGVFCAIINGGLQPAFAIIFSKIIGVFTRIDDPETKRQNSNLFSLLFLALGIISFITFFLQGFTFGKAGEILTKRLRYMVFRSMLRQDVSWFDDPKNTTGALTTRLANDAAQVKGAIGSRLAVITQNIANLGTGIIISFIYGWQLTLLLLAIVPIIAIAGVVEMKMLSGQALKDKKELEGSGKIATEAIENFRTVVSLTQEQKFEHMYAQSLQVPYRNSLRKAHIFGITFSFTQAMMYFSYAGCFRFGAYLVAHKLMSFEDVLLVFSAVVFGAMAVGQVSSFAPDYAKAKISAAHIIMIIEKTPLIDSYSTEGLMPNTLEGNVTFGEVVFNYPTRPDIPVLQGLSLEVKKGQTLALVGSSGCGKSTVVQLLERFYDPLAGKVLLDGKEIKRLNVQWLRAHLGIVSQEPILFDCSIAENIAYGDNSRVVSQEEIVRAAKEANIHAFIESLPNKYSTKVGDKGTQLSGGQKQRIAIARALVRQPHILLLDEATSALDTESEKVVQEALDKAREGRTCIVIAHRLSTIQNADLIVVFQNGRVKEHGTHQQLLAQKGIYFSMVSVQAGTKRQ
The series is described as follows: Rhodamine‐123 uptake assay, inhibition, differentiated Caco2 cells. Particulars: VL initial concentration 50 and 25 µM, 90 min. The class given is cell-based.
Method: To evaluate P‐gp inhibition on day 21, the medium was removed and 200 μL Hank's salt solution was added, the plate was then incubated for 40 min. […] After treatment cells were washed three times with ice‐cold PBS, and 200 μL of lysis buffer (0.1% Triton X 100 and 0.2 N NaOH) was added. The plate was kept on a shaker for 2 h at room temperature, and 100 μL of lysate was used to measure the Rh‐123 fluorescence at 485/529 nm. Further, 10 μL of lysate was taken in a separate 96‐well plate, and 190 μL Bradford reagent was added. The plate was shaken for 5–10 min, and absorbance was measured at 595 nm. Each sample was normalized by dividing the fluorescence of each sample by the total proteins present in the lysate.^[ [46] ^]

The nature of series [4]: In vitro transport study across 21‐day Caco2 monolayers. The series is classed as in vitro ADME, human. Particulars: human, Caco-2, Caco2 model, N = 4. Here is the method:
as §1, §2, §3, §4, §5, §6
For orientation: Caco-2 monolayers are a common model of the intestinal barrier.

The test system of the next series is Caco2 monolayers. The series is described as above. Particulars: Caco2 model, VL 50 μM dosed (VLS formed as metabolite), controls 10 μM, N = 4. The class given is in vitro ADME, human. Here is the method: as §1, §2, §3, §4, §5, §6
In a further series the target is T3, BCRP (Homo sapiens, UniProt Q9UNQ0).
T3 construct: performing the Rh‐123 uptake‐based efflux assay in the differentiated Caco2 cell line; endogenous in cells; host or cells: differentiated Caco2 cells (21 days)
T3 sequence (Q9UNQ0 1-655): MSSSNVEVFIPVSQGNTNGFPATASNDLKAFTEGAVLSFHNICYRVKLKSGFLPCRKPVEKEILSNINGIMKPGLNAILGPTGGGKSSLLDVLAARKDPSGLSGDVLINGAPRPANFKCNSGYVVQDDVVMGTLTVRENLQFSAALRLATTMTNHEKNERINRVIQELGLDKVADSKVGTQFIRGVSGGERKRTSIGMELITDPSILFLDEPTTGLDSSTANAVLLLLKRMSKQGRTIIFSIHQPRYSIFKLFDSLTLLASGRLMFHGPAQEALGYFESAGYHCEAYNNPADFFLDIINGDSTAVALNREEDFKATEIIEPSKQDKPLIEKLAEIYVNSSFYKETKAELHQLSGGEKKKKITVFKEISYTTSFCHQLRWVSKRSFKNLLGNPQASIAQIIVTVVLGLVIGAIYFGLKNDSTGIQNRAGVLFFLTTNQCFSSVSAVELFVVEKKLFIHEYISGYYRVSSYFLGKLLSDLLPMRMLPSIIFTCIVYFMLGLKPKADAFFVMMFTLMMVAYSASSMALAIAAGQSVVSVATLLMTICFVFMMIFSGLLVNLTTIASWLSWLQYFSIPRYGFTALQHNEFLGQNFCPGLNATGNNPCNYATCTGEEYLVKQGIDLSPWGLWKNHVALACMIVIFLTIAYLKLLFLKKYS
The series is described as follows: Rhodamine‐123 uptake assay, cotreatment with elacridar, differentiated Caco2 cells. Particulars: at higher doses. The class given is cell-based.

`CO[C@H]1/C=C/O[C@@]2(C)Oc3c(C)c(O)c4c(O)c(c(/C=N/N5CCN(C)CC5)c(O)c4c3C2=O)NC(=O)/C(C)=C\C=C\[C@H](C)[C@H](O)[C@@H](C)[C@@H](O)[C@@H](C)[C@H](OC(C)=O)[C@@H]1C` [RIF, rifampicin, reference compound] came in with a PXR activation on PXR of 3.4 folds. The “intracellular accumulation of Rh‐123” value with P‐gp [1] (10 µM, 0.1% DMSO vehicle control = 100%) stood at 75%.

Take `O=C1CCC(Cc2ccc(O)c(OS(=O)(=O)O)c2)O1` (stereo not shown) [VLS, valerolactone sulfate]: the “P app A–B (mean ± SD)” value was 17.33 ×10⁻⁶ cm/s and 173.3 ± 25 ×10⁻⁶ cm/s in the series with Wt‐MDCK monolayers (absorptive direction); 22.25 ×10⁻⁶ cm/s in the series on Caco2 monolayers (absorptive direction). The “P app B–A (mean ± SD)” value is 14.43 ×10⁻⁶ cm/s in the series on Wt‐MDCK monolayers (secretory direction) and 55.35 ×10⁻⁶ cm/s in the series with Caco2 monolayers (secretory direction). Besides, the efflux ratio at 120 min in series [2] came out at 0.843 ± 0.105; in series [4] (Papp(B−A)/Papp(A−B), read-out: Efflux ratio (mean ± SD)), 2.35 ± 0.341. Further, the “Rh‐123 uptake in cotreatment with CsA 20 µM” value at P‐gp [3] is given as “nonsignificant results”. For the same molecule, the Papp A→B at 120 min in series [4] (absorptive direction, VL 50 μM dosed (VLS formed as metabolite), controls 10 μM, read-out: P app A–B (mean ± SD)) worked out at 22.3 ×10⁻⁶ cm/s. Also, the Papp B→A at 120 min in series [4] (secretory direction, VL 50 μM dosed (VLS formed as metabolite), controls 10 μM, read-out: P app B–A (mean ± SD)) stood at 55.4 ×10⁻⁶ cm/s. Besides, in the series on P‐gp [1] (2.5 to 10 µM), the “P‐gp induction” value was “no significant data of P‐gp induction”. The “effect on BCRP efflux transporter” value at BCRP is on record as “slightly activates the BCRP efflux transporter”.
